For orientation: inhibition means the drop in the measured response relative to a control, in per cent.

This is an account of results in ChEMBL document CHEMBL3774364, “Synthesis of N-cyano-substituted sulfilimine and sulfoximine derivatives of S0859 and their biological evaluation as sodium bicarbonate co-transport inhibitors” (Medchemcomm, 2015).

Molecules are shown by their SMILES. Calls of active or inactive are those of the source. No cut-off for these calls is given here.

The target in experiment [1] is T1, Sodium bicarbonate cotransporter 3 (Mus musculus) (UniProt Q8BTY2).
T1 sequence (whole entry): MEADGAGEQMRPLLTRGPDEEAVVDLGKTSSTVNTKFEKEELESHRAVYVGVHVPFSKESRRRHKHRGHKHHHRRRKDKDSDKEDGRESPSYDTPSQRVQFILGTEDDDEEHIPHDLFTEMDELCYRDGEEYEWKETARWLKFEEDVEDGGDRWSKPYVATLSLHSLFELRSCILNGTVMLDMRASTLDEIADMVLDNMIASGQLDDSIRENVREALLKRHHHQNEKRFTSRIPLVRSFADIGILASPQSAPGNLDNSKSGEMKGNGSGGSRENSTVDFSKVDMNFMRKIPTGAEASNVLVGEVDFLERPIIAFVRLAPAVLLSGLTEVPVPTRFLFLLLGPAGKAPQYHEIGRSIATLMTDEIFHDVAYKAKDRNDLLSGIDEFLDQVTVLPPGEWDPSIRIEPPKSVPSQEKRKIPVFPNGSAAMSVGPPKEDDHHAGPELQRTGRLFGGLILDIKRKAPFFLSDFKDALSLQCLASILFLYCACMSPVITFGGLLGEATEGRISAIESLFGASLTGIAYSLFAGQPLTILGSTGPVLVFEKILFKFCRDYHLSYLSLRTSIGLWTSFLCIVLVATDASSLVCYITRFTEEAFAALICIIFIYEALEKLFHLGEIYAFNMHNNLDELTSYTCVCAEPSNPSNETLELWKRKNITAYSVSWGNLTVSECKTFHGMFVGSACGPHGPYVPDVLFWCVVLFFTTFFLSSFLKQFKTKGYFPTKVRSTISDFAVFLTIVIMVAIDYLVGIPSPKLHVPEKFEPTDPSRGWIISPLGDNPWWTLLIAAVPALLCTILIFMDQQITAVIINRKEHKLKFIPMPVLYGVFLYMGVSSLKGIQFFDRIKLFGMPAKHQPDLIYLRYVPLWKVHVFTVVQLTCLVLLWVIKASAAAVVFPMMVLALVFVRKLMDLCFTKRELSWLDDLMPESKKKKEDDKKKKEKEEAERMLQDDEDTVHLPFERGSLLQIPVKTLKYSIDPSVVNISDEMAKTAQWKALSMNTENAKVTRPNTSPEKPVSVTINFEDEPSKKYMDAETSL
The experiment can be described thus: Inhibition of NBCn1 in epithelial organoids from mouse ErbB2-overexpressing breast cancer tissue assessed as Na(+) -dependent pHi recovery rate at 30 uM.

Experiment [2] has as its target T2, Sodium bicarbonate cotransporter 3 (Homo sapiens) (UniProt Q9Y6M7).
T2 sequence (whole entry): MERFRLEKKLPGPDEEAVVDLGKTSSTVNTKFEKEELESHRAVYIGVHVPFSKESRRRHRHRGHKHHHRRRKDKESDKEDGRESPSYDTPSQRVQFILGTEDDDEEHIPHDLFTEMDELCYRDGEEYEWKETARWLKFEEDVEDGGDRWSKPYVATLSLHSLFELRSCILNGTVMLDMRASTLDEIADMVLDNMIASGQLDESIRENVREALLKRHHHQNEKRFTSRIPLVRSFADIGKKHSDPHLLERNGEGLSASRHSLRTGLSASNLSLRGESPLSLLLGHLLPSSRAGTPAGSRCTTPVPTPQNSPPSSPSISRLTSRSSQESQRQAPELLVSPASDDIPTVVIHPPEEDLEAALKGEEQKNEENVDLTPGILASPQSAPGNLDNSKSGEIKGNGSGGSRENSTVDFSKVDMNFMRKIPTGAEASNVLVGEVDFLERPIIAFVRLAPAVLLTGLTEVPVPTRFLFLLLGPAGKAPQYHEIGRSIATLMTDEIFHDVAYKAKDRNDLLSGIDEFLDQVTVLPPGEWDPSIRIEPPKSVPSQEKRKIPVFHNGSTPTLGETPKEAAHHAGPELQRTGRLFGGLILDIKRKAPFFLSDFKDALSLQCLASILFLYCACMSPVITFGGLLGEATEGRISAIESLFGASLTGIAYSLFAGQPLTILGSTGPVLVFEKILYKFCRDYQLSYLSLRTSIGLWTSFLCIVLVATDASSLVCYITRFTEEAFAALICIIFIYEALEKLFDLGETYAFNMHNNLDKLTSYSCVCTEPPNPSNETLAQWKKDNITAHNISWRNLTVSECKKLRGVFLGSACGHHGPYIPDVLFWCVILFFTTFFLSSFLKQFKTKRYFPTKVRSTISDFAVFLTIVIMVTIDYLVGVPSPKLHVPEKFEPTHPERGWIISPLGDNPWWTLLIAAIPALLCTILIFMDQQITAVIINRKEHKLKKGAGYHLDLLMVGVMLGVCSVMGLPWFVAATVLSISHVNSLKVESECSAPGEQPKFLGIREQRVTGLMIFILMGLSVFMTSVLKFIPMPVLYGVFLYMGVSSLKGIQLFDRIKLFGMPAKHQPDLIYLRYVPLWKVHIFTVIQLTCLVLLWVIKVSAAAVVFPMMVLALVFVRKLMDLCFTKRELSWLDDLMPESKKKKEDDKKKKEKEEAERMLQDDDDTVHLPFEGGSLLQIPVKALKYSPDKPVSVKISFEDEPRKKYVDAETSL
The experiment can be described thus: Inhibition of NBCn1 in human MCF7 cells assessed as decrease in Na(+) -dependent pHi recovery rate at 30 uM. The class given is cell-based.

`Cc1ccc(CN(Cc2ccc(-c3ccccc3/S(C)=N/C#N)cc2)C(=O)c2ccccc2Cl)cc1` (stereo unspecified): the inhibition result in experiment [1] and in experiment [2] was “inactive” in each case.
`Cc1ccc(CN(Cc2ccc(-c3ccccc3S(=O)(=O)NC#N)cc2)C(=O)c2ccccc2Cl)cc1`: the inhibition entry in experiment [1] was “inactive”. Moreover, the inhibition in experiment [2] is 45%.
On the same counts, the results for `Cc1ccc(CN(Cc2ccc(-c3ccccc3S(C)(=O)=NC#N)cc2)C(=O)c2ccccc2Cl)cc1` (stereo unspecified) are “inactive” and “inactive”.
